From patent publication US20220062278A1, “SMALL MOLECULE INHIBITORS OF THE ANDROGEN RECEPTOR ACTIVITY AND/OR EXPRESSION AND USES THEREOF” (Arizona Board of Regents on Behalf of the Univeristy of …, priority 2018, published 2022) come the findings set out here.

The test addresses T1, AR (Homo sapiens, UniProt P10275).
T1 sequence (P10275 669-920 limits assumed): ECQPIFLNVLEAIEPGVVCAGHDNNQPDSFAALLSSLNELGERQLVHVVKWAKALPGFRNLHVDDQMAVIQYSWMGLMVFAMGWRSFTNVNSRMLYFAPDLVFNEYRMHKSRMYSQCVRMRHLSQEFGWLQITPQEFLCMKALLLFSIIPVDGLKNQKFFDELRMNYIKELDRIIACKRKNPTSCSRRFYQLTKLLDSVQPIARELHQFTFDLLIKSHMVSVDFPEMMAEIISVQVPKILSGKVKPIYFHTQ
The experiment in a line: GeneBlazer assay, inhibition against AR activity. It is filed as cell-based. The settings on record: Table II. The text has this:
Tables II, III and IV show % inhibition against AR activity at 10 μm within a GeneBlazer assay, and IC50 values (nM) in GeneBlazer assay.

SMILES strings stand for the structures.

By inhibition is commonly meant the drop in the measured response relative to a control, in per cent. Turning to `CCCCn1nnnc1C(c1ccc2ccccc2c1)N1CCN(c2c(Cl)cncc2Cl)CC1` (centres unmarked) [Compound 40, 1-((1-butyl-1H-tetrazol-5-yl)(naphthalen-2-yl)methyl)-4-(3,5-dichloropyridin-4-yl)piperazine], the inhibition at 10 µM came out at 87.6%.

For the compound `CC(C)(C)n1nnnc1C(c1ccc2ccccc2c1)N1CCN(c2c(Cl)cncc2Cl)CC1` (centres unmarked) [Compound 41, 1-((1-(tert-butyl)-1H-tetrazol-5-yl)(naphthalen-2-yl)methyl)-4-(3,5-dichloropyridin-4-yl)piperazine], the inhibition at 10 µM was determined as 108%.

For `CC(C)(C)n1nnnc1C(/C=C/c1ccccc1)N1CCN(c2c(Cl)cncc2Cl)CC1` (centres unmarked) [Compound 43, (E)-1-(1-(1-(tert-butyl)-1H-tetrazol-5-yl)-3-phenylallyl)-4-(3,5-dichloropyridin-4-yl)piperazine], the inhibition at 10 µM was 111%.

The IC50 is the concentration that gives 50% inhibition. Lower therefore signals inhibition by little substance. In the case of `CCCCn1nnnc1C(c1cc2ccccc2[nH]1)N1CCN(c2c(Cl)cncc2Cl)CC1` (centres unmarked) [Compound 46, 2-((1-butyl-1H-tetrazol-5-yl)(4-(3,5-dichloropyridin-4-yl)piperazin-1-yl)methyl)-1H-indole], the inhibition at 10 µM is 102% and it took 381 nM to reach half-maximal inhibition (IC50).

`CC(C)(C)n1nnnc1C(c1cc2ccccc2[nH]1)N1CCN(c2c(Cl)cncc2Cl)CC1` (centres unmarked) [Compound 47, 2-((1-(tert-butyl)-1H-tetrazol-5-yl)(4-(3,5-dichloropyridin-4-yl)piperazin-1-yl)methyl)-1H-indole]: the inhibition at 10 µM worked out at 114% and the IC50 came to 182 nM.

Regarding `CCCCn1nnnc1C(c1ccc(C)o1)N1CCN(c2c(Cl)cncc2Cl)CC1` (centres unmarked) [Compound 48, 1-((1-butyl-1H-tetrazol-5-yl)(5-methylfuran-2-yl)methyl)-4-(3,5-dichloropyridin-4-yl)piperazine], the inhibition at 10 µM is 100%.

For `Cc1ccc(C(c2nnnn2C(C)(C)C)N2CCN(c3c(Cl)cncc3Cl)CC2)o1` (centres unmarked) [Compound 49, 1-((1-(tert-butyl)-1H-tetrazol-5-yl)(5-methylfuran-2-yl)methyl)-4-(3,5-dichloropyridin-4-yl)piperazine], the inhibition at 10 µM came to 100%.

In the case of `CC(C)n1nnnc1C(c1ccco1)N1CCN(c2c(Cl)cncc2Cl)CC1` (centres unmarked) [Compound 50, 1-(3,5-dichloropyridin-4-yl)-4-(furan-2-yl(1-isopropyl-1H-tetrazol-5-yl)methyl)piperazine], the inhibition at 10 µM amounted to 96.7%.

Take `CC(C)n1nnnc1C(c1ccnc2ccccc12)N1CCN(c2c(Cl)cncc2Cl)CC1` (centres unmarked) [Compound 51, 4-((4-(3,5-dichloropyridin-4-yl)piperazin-1-yl)(1-isopropyl-1H-tetrazol-5-yl)methyl)quinoline]: the inhibition at 10 µM amounted to 101%.

Turning to `CCCCC(c1nnnn1C(C)C)N1CCN(c2c(Cl)cncc2Cl)CC1` (centres unmarked) [Compound 52, 1-(3,5-dichloropyridin-4-yl)-4-(1-(1-isopropyl-1H-tetrazol-5-yl)pentyl)piperazine], the inhibition at 10 µM was determined as 95.8%.

For `COC(=O)Cn1nnnc1C(c1cccc(O)c1)N1CCN(c2c(Cl)cncc2Cl)CC1` (centres unmarked) [Compound 53, Methyl 2-(5-((4-(3,5-dichloropyridin-4-yl)piperazin-1-yl)(3-hydroxyphenyl)methyl)-1H-tetrazol-1-yl)acetate], the inhibition at 10 µM is 72.4%.

`CCCCn1nnnc1C(c1cccc(O)c1)N1CCN(c2ccc(F)cc2)CC1` (centres unmarked) [Compound 54, 3-((1-butyl-1H-tetrazol-5-yl)(4-(4-fluorophenyl)piperazin-1-yl)methyl)phenol]: the inhibition at 10 µM stood at 51.3%.

As to `CCCCn1nnnc1C(c1cccc(O)c1)N1CCN(c2c(C)cccc2C)CC1` (centres unmarked) [Compound 55, 3-((1-butyl-1H-tetrazol-5-yl)(4-(2,6-dimethylphenyl)piperazin-1-yl)methyl)phenol], the inhibition at 10 µM was found to be 109%.

For the compound `CCCCn1nnnc1C(c1cccc(O)c1)N1CCN(C(=O)OC(C)(C)C)CC1` (centres unmarked) [Compound 56, tert-butyl 4-((1-butyl-1H-tetrazol-5-yl)(3-hydroxyphenyl)methyl)piperazine-1-carboxylate], the inhibition at 10 µM turned out to be 24.6%.

For the compound `CCCCn1nnnc1C(c1cccc(O)c1)N1CCN(C(=O)OCc2ccccc2)CC1` (centres unmarked) [Compound 57, benzyl 4-((1-butyl-1H-tetrazol-5-yl)(3-hydroxyphenyl)methyl)piperazine-1-carboxylate], the inhibition at 10 µM is 24.9%.

Consider `CCCCn1nnnc1C(c1cccc(O)c1)N1CCN(c2cccc(C(F)(F)F)n2)CC1` (centres unmarked) [Compound 58, 3-((1-butyl-1H-tetrazol-5-yl)(4-(6-(trifluoromethyl)pyridin-2-yl)piperazin-1-yl)methyl)phenol], for which the inhibition at 10 µM turned out to be 58.4%.

As to `CCCCn1nnnc1C(c1cccc(O)c1)N1CCN(c2ccccc2OC)CC1` (centres unmarked) [Compound 59, 3-((1-butyl-1H-tetrazol-5-yl)(4-(2-methoxyphenyl)piperazin-1-yl)methyl)phenol], the inhibition at 10 µM was 94.5%.

In the case of `CCCCn1nnnc1C(c1cccc(O)c1)N1CCN(c2ncccc2C(F)(F)F)CC1` (centres unmarked) [Compound 60, 3-((1-butyl-1H-tetrazol-5-yl)(4-(3-(trifluoromethyl)pyridin-2-yl)piperazin-1-yl)methyl)phenol], the inhibition at 10 µM worked out at 105%.

As to `CCCCn1nnnc1C(c1cccc(O)c1)N1CCN(c2ncc(C(F)(F)F)cc2Cl)CC1` (centres unmarked) [Compound 61, 3-((1-butyl-1H-tetrazol-5-yl)(4-(3-chloro-5-(trifluoromethyl)pyridin-2-yl)piperazin-1-yl)methyl)phenol], the inhibition at 10 µM turned out to be 102% and the IC50 came to 2270 nM.

Consider `CCCCn1nnnc1C(c1cccc(O)c1)N1CCN(c2ccccn2)CC1` (centres unmarked) [Compound 62, 3-((1-butyl-1H-tetrazol-5-yl)(4-(pyridin-2-yl)piperazin-1-yl)methyl)phenol], for which the inhibition at 10 µM amounted to 19.9%.

Consider `CCCCn1nnnc1C(c1cccc(O)c1)N1CCN(c2ccc(C(C)=O)cc2)CC1` (centres unmarked) [Compound 63, 1-(4-(4-((1-butyl-1H-tetrazol-5-yl)(3-hydroxyphenyl)methyl)piperazin-1-yl)phenyl)ethanone], for which the inhibition at 10 µM came out at 47.9%.

Regarding `CCCCn1nnnc1C(c1cccc(O)c1)N1CCN(c2ccccc2F)CC1` (centres unmarked) [Compound 65, 3-((1-butyl-1H-tetrazol-5-yl)(4-(2-fluorophenyl)piperazin-1-yl)methyl)phenol], the inhibition at 10 µM came to 79.8%.

For the compound `CCCCn1nnnc1C(c1cccc(O)c1)N1CCN(c2cccc(C)c2C)CC1` (centres unmarked) [Compound 66, 3-((1-butyl-1H-tetrazol-5-yl)(4-(2,3-dimethylphenyl)piperazin-1-yl)methyl)phenol], the inhibition at 10 µM was 106%.

`CCCCn1nnnc1C(c1cccc(O)c1)N1CCN(c2ccccc2)CC1` (centres unmarked) [Compound 67, 3-((1-butyl-1H-tetrazol-5-yl)(4-phenylpiperazin-1-yl)methyl)phenol]: the inhibition at 10 µM came to 63.9%.

`CC(C)(C)n1nnnc1C(c1cccc(O)c1)N1CCN(C/C=C/c2ccccc2)CC1` (centres unmarked) [Compound 68, (E)-3-((1-(tert-butyl)-1H-tetrazol-5-yl)(4-cinnamylpiperazin-1-yl)methyl)phenol]: the inhibition at 10 µM worked out at 17.2%.

Consider `CCCCn1nnnc1C(CCc1ccccc1)N1CCN(c2c(Cl)cncc2Cl)CC1` (centres unmarked) [Compound 69, 1-(1-(1-butyl-1H-tetrazol-5-yl)-3-phenylpropyl)-4-(3,5-dichloropyridin-4-yl)piperazine], for which the inhibition at 10 µM stood at 96%.
